Marks after values point to notes of the source that are not given here.
How the values were obtained:
[1] = test system: Systemic Inflammatory Response Syndrome (SIRS): Intravenous Lipopolysaccharide Stimulation; test: Animal model for SIRS: intravenous LPS bolus stimulation in rats (Method 1); assay type: in vivo; conditions: for IL-6 / TAT: rat blood, ELISA
Procedure: Animal Model for Systemic Inflammatory Response Syndrome (SIRS): Intravenous Lipopolysaccharide Stimulation (Modified According to Isobe et al. Circulation 2001; 104: 1171-1175)
Rats (male, approx. 300 g CrlGlxBrlHan:Wi) were anaesthetised with pentobarbital (60 mg/kg i.p.). To maintain the anaesthetic a pentobarbital drip was set up (22.5 mg/kg/h i.p.). The carotid artery was cannulated for taking blood samples, the left jugular vein was cannulated for administration of the substance and the right jugular vein was cannulated for administering the LPS. The administration of (R)-2-[…]-5-[1-(carboxymethylamino)-1-(pyrrolidinocarbonyl)-ethyl]-benzimidazole (0.1 mg/kg/h) was started at time t=−60 min as a continuous drip and maintained until the end of the experiment. One hour after the start of the infusion of the substance, a single bolus of LPS was administered (lipopolysaccharide of E. coli serotype 0127:B8 Sigma L-3129 5 mg/kg i.v. bolus) at time t=0 min. In order to determine the coagulation and inflammation parameters, blood was taken via the arterial cannulae at times a) before the infusion of placebo or (R)-2-(4-amidinophenylaminomethyl)-1-methyl-5-[1-(carboxymethylamino)-1-(pyrrolidinocarbonyl)-ethyl]-benzimidazole (−60 minutes), b) before administration of the LPS bolus (0 minutes) and c) 240 minutes after the administration of LPS. From the blood samples the TAT complex (thrombin-antithrombin) and interleukin-6 (IL-6) were determined by ELISA as parameters of a systemic inflammatory reaction.

[2] = test system: Systemic Inflammatory Response Syndrome (SIRS): Intravenous Lipopolysaccharide Stimulation; test: Animal model for SIRS: continuous intravenous LPS infusion in rats (Method 2); assay type: in vivo
Procedure: Animal Model for Systemic Inflammatory Response Syndrome (SIRS): Intravenous Lipopolysaccharide Stimulation (Modified According to Aoki et al. Drug Res. 50: 809; 2000 and Yamazaki et al. Blood Coag. Fibrinol. 10: 321; 1999)
Rats (male, approx. 300 g CrlGlxBrlHan:Wi) were anaesthetised with pentobarbital (60 mg/kg i.p.). To maintain the anaesthetic a pentobarbital drip was set up (22.5 mg/kg/h i.p.). The left jugular vein was cannulated for administration of the substance and the right jugular vein was cannulated for administering the LPS. LPS was given as a continuous infusion for 4 hours (lipopolysaccharide of E. coli serotype 0127:B8 Sigma L-3129 7.5 mg/kg/h). (R)-2-(4-amidinophenylaminomethyl)-1-methyl-5-[1-(carboxymethylamino)-1-(pyrrolidinocarbonyl)-ethyl]-benzimidazole (0.1 mg/kg/h) was administered as a continuous infusion (100 μg/kg/h) one hour after the start of the LPS infusion with a total duration of 3 hours. In order to determine the inflammation parameters, blood was taken from the abdominal artery after a total test period of four hours. From the blood samples the TAT complex (thrombin-antithrombin), interleukin-1β (IL-1β), interleukin-6 (IL-6) and the tumour necrosis factor alpha (TNF-alpha) were determined by ELISA as parameters of a systemic inflammatory reaction. Alanine-aminotransferase (ALT) and creatinin served as enzyme parameters for organ damage to the liver and kidneys.

[3] = 0 min (before LPS bolus, 1 h after start of infusion), active substance 100 μg/kg/h
[4] = +240 min after LPS 5 mg/kg i.v. bolus, active substance 100 μg/kg/h
[5] = result in words, LPS bolus, 0.1 mg/kg/h
[6] = −60 min (before start of infusion), LPS + active substance 100 μg/kg/h continuous drip
[7] = LPS 7.5 mg/kg/h × 4 h + 100 μg/kg/h infusion from 1 h after LPS start for 3 h, blood after 4 h, mean ± standard deviation
[8] = result in words, continuous LPS infusion, 0.1 mg/kg/h

`Cn1c(CNc2ccc(C(=N)N)cc2)nc2cc([C@@](C)(NCC(=O)O)C(=O)N3CCCC3)ccc21` [BIBT 986, (R)-2-(4-amidinophenylaminomethyl)-1-methyl-5-[1-(carboxymethylamino)-1-(pyrrolidinocarbonyl)-ethyl]-benzimidazole] was tested, and the IL-6 [1, 3] was 0.143 ± 0.083 ng/mL, the TAT [1, 3] was 2.21 ± 0.79 ng/mL and the IL-6 [1, 4] was 43.454 +/− 2.975 * ng/ml. For the same compound, the TAT [1, 4] was 6.52 +/− 1.33 * ng/ml, the “plasma levels of IL-6 versus untreated LPS animals” value [1, 5] was “significant (p<0.02) reduction” and the “plasma levels of the TAT complex versus untreated LPS animals” value [1, 5] was “significantly lower than in the untreated LPS animals (p<0.02) and were within the control range”. For the same compound, the IL-6 [1, 6] was 0.139 ± 0.086 ng/mL, the TAT [1, 6] was 2.33 ± 0.89 ng/mL and the IL-1β [2, 7] was 4036 ± 1000 pg/mL. The IL-6 [2, 7] was 89579 ± 10069 pg/mL, the TNF-alpha [2, 7] was 1003 ± 292 pg/mL and the creatinin ([2]; kidney damage marker, LPS 7.5 mg/kg/h × 4 h + 100 μg/kg/h infusion for 3 h, blood after 4 h, mean ± standard deviation) was 40.1 ± 1.8 µmol/L. The ALT ([2]; liver damage marker, LPS 7.5 mg/kg/h × 4 h + 100 μg/kg/h infusion for 3 h, blood after 4 h, mean ± standard deviation) was 44.2 ± 7.1 U/ml, the “ALT versus untreated control animals” value [2, 8] was “not significantly different from untreated control animals” and the “TAT complex versus LPS-treated animals” value [2, 8] was “significant lowering”. The “creatinin versus untreated control animals” value [2, 8] was “not significantly different from untreated control animals”, the “plasma levels of IL-1β versus LPS-treated animals” value [2, 8] was “significant (p<0.02) lowering” and the “plasma levels of IL-6 versus LPS-treated animals” value [2, 8] was “significant (p<0.02) lowering”. For the same compound, the “plasma levels of TNF alpha versus LPS-treated animals” value [2, 8] was “significant (p<0.02) lowering”.
